Experimental data from the COVID Moonshot data (paper PMC11187573), “Identification of SARS-CoV-2 Mpro inhibitors through deep reinforcement learning for de novo drug design and computational chemistry approaches” (RSC Medicinal Chemistry, 2024).
pIC50: −log10 of the molar value.

Columns and labels:
[1] = biological target: SARS-CoV-2 Main Protease (SARS-CoV-2) (UniProt P0DTD1)
[2] = biological target: SARS-CoV-2 Main Protease (SARS-CoV-2) (UniProt P0DTD1); conditions: for inhibition: 50.0 µM

## O=C(NCc1ccc2c(c1)OCO2)c1nc(S(=O)(=O)Cc2ccccc2)ncc1Cl
[1]; 20.0 µM
  inhibition: 98.5%
[1]; 50.0 µM
  inhibition: 99.8%
[2]
  pIC50: 6.29

## O=C(Nc1cccc(C(F)(F)F)c1)Nc1ccccc1Sc1ncc([N+](=O)[O-])s1
[1]; 20.0 µM
  inhibition: 55.9%
[1]; 50.0 µM
  inhibition: 76.3%
[2]
  pIC50: 6.66

## O=C(O)[C@@H](c1ccccc1)N1Cc2ccccc2C1=O (stereo in doubt)
[1]; 20.0 µM
  inhibition: 96.3%
[1]; 50.0 µM
  inhibition: 99.4%
[2]
  pIC50: 5.94

## N#Cc1ccc(CN2CCC(C3CCNC3)CC2)cc1 (stereo unspecified)
[1]; 20.0 µM
  inhibition: 97.1%
[1]; 50.0 µM
  inhibition: 98.9%
[2]
  pIC50: 5.87

## CC(C)n1c(NC(=O)C2CCOc3ccccc32)nc2ccccc21 (stereo unspecified)
[1]; 20.0 µM
  inhibition: 27.9%
[1]; 50.0 µM
  inhibition: -2.12%
[2]
  inhibition: 8.85%

## CC(=O)Oc1ccccc1C(=O)Nc1ncc([N+](=O)[O-])s1
[1]; 50.0 µM
  inhibition: -8.72%
[2]
  inhibition: 0%

## O=C1C(=O)N(Cc2ccccc2)c2ccc([N+](=O)[O-])cc21
[2]
  pIC50: 4.57

## Cc1cc(C(F)(F)F)nc2n[nH]c(NC(=O)C3CCOc4ccc(Cl)cc43)c12 (stereo unspecified)
[2]
  pIC50: 4.01

## O=C(c1cc(=O)[nH]c2ccccc12)N1CCN(Cc2cccc(Cl)c2)CC1
[2]
  inhibition: 50.9%

## O=C(c1cc(=O)[nH]c2ccccc12)N1CCN(c2cccc(Cl)c2)CC1
[2]
  pIC50: 5.66
  inhibition: 65.7%

## O=C(Cc1cccc(Cl)c1)Nc1cncc2c1CCCN2
[2]
  pIC50: 5.39

## Cc1ccncc1NC(=O)Cc1cc(Cl)cc(NC2CCC(F)(F)C2O)c1 (stereo unspecified)
[2]
  pIC50: 4.59

## Cc1ccn2cnnc2c1NC(=O)Cc1cccc(Cl)c1
[2]
  pIC50: 4.08

## CCC(=O)Nc1ccc(N(Cc2cscn2)C(=O)Cn2nnc3ccccc32)cc1
[2]
  pIC50: 4.34

## O=C(Nc1cc(=O)[nH]c2ccccc12)C1CCOc2ccc(Cl)cc21 (stereo unspecified)
[2]
  pIC50: 4.32

## CS(=O)(=O)Nc1cccc(C2=NN(C(=O)CCl)C(c3ccccc3)C2)c1 (stereo unspecified)
[2]
  inhibition: 57.6%

## Cc1ccncc1N1CCC(c2cccc(Cl)c2)S1(=O)=O (stereo unspecified)
[2]
  pIC50: 4.17

## CC(C)(C)N1C=CN(C(C)(C)C)[CH]1[Au][Cl]
[2]
  pIC50: 6.93
  inhibition: 100%

## Cc1ccncc1NC(=O)Cc1cc(Cl)cc(OCc2cc(-c3ccc(Cl)cc3)no2)c1
[2]
  pIC50: 4.31
  inhibition: 41.8%

## Cc1ccncc1NC(=O)Cc1cc(Cl)cc(NS(N)(=O)=O)c1
[2]
  pIC50: 4.84
  inhibition: 87.9%

## O=C(Cn1nnc2ccccc21)N(Cc1ccccc1)c1ccc(N2CCOCC2)cc1
[2]
  pIC50: 4.74

## O=C1CC(C(=O)Nc2cncc3ccccc23)c2cc(Br)ccc2N1 (stereo unspecified)
[2]
  pIC50: 5.95

## Cc1ccc(N(Cc2cscn2)C(=O)Cc2cncc3ccccc23)cc1
[2]
  pIC50: 4.87

## Cc1ccncc1NC(=O)Cc1cc(Cl)cc(NC2CCCC2O)c1 (stereo unspecified)
[2]
  pIC50: 4.41
  inhibition: 61.5%

## CN(C)c1ccc(N(Cc2ccn[nH]2)C(=O)Cn2nnc3ccccc32)cc1
[2]
  pIC50: 4.04

## O=C(NCC1=[SH]C=CC1)[C@@H](c1ccccc1)N1Cc2ccccc2C1=O (stereo in doubt)
[2]
  pIC50: 4.09

## COc1cc(COc2cc(Cl)cc(CC(=O)Nc3cnccc3C)c2)ccc1OC(F)F
[2]
  pIC50: 5.13

## CC(C)(C)c1ccc(N(C(=O)c2ccco2)[C@H](C(=O)NCCc2cccc(F)c2)c2cccnc2)cc1
[2]
  inhibition: 100%

## Cc1ccncc1NC(=O)Cc1cc(Cl)cc(/C=C(/c2ccccc2)C(F)(F)F)c1
[2]
  pIC50: 4.81

## Cc1ccc(NC2=C(c3ccccc3)C(=O)N(Cc3cccnc3)C2=O)c(C)c1
[2]
  pIC50: 4.26

## COc1ccc2c(NC(=O)Cc3cccc(Cl)c3)[nH]nc2c1
[2]
  pIC50: 4.28

## O=C(Nn1nnc2ccccc21)C(Cc1cccc(Cl)c1)c1ccc(N2CCCCC2=O)cc1 (stereo unspecified)
[2]
  pIC50: 4.09

## CC(C)(C)c1ccc(N(C(=O)c2ccco2)[C@@H](C(=O)NCCc2cccc(F)c2)c2cccnc2)cc1
[2]
  inhibition: 100%

## Cc1ccncc1NC(=O)Cc1cc(Cl)cc(S(N)(=O)=O)c1
[2]
  pIC50: 4.88
  inhibition: 64%

## Cc1ccncc1NC(=O)Cc1cc(Cl)cc(C2COC2)c1
[2]
  pIC50: 4.24

## Cc1ccncc1NC(=O)Cc1cc(Cl)cc(-c2ccc(S(C)(=O)=O)cc2Cl)c1
[2]
  pIC50: 4.71

## CC[P](CC)(CC)=[Au][S][C@@H]1O[C@H](COC(C)=O)[C@@H](OC(C)=O)[C@H](OC(C)=O)[C@H]1OC(C)=O (stereo in doubt)
[2]
  inhibition: 100%

## CC(C)(C)C(=O)C(C#N)C(=O)Nc1ccc(Cl)cc1 (stereo unspecified)
[2]
  inhibition: 0%

## O=C(Nc1cncc2ccccc12)C1COc2ccc(Cl)cc21 (stereo unspecified)
[2]
  pIC50: 6.29
  inhibition: 77%

## O=C(Cc1cccc(Cl)c1)Nc1[nH]nc2cc(F)ccc12
[2]
  pIC50: 4.04

## CC12CCCC(O1)c1c(cc3c(c1O)C(=O)c1c(O)cc(O)cc1C3=O)O2 (stereo unspecified)
[2]
  inhibition: 26.4%

## CN(C)c1ccc(N(Cc2cccc(Cl)c2)C(=O)Cn2nnc3ccccc32)cc1
[2]
  pIC50: 6.41

## CCCCN1C(=O)C(=O)c2cc(Br)cc(C)c21
[2]
  pIC50: 4.24
